PMC5332327 (Journal of the American Chemical Society, 2017)

Target: Nan[KS1][AT1] (Streptomyces nanchangensis, UniProt Q7WTF5)
Test: coupled KS-KR assay, chiral GC-MS of diketide methyl ester
Type: biochemical
Settings: holo-NanACP1, NADPH, KR domain, pH 7.2

Sequence of Nan[KS1][AT1] (Q7WTF5 1029-1965): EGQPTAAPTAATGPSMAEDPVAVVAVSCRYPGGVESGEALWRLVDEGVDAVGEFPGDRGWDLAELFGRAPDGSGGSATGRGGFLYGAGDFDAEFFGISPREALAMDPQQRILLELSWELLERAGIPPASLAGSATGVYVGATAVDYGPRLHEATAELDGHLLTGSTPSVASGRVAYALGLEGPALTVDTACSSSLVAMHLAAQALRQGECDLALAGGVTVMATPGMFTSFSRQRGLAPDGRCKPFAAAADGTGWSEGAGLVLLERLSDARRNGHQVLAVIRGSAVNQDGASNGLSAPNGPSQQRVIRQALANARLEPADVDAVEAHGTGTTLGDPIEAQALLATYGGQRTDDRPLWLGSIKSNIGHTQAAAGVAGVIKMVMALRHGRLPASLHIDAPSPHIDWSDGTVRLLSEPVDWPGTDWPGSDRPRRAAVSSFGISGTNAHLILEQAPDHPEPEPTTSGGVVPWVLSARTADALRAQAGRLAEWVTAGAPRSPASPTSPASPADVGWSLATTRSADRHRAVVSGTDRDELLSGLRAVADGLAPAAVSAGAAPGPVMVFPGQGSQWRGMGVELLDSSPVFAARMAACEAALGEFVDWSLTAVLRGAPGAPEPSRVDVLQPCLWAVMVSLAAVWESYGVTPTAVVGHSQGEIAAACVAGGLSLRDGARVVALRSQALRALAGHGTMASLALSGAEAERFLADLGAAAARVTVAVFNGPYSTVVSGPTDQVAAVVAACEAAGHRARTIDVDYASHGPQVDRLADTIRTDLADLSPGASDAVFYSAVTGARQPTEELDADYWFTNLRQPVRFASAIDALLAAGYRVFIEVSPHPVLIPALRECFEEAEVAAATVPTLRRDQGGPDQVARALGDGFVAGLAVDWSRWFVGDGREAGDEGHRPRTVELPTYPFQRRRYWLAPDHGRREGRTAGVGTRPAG

Structure (SMILES) | coupled KS-KR assay, chiral GC-MS of diketide methyl ester (300 uM methylmalonyl-CoA, propionyl-SNAC, extender) | coupled KS-KR assay, chiral GC-MS of diketide methyl ester (5 mM propionyl-SNAC, methylmalonyl-CoA, primer)
CC(C(=O)O)C(=O)SCCNC(=O)CCNC(=O)[C@H](O)C(C)(C)COP(=O)(O)OP(=O)(O)OC[C@H]1O[C@@H](n2cnc3c(N)ncnc32)[C@H](O)[C@@H]1OP(=O)(O)O (some centres unmarked) [methylmalonyl-CoA] | condensation between propionyl-SNAC and methylmalonyl-CoA catalyzed by the polyether synthase didomain Nan[KS1][AT1] | 
CCC(=O)SCCNC(C)=O [propionyl-SNAC] |  | condensation between propionyl-SNAC and methylmalonyl-CoA catalyzed by the polyether synthase didomain Nan[KS1][AT1]
